Measured values taken from the SangsterLogP compilation.

Conditions: not given

SMILES | logP
COP(=S)(Oc1cc(Cl)c(Br)cc1Cl)c1ccccc1 (centres undefined) | 5.88
CCOP(=S)(OCC)Oc1ccc(N)cc1 | 2.6
Cc1cc(Cl)ccc1/N=C/N(C)C | 2.89
COP(=S)(OC)SCSc1ccc(Cl)cc1 | 4.82
COP(=O)(OC)SCn1nnc2ccccc2c1=O | 0.78
CCOP(=S)(OCC)Oc1cc(C)nc(N(CC)CC)n1 | 4.85
CCOP(=S)(OCC)SCCS(=O)(=O)CC | 1.87
CCOP(=S)(OCC)Oc1ccc(S(C)(=O)=O)cc1 | 2.56
COP(=S)(OC)Oc1cc(Cl)c(Br)cc1Cl | 4.88
CCOP(=O)(OCC)SCS(=O)(=O)CC | 1.98
CCOP(=S)(OCC)Oc1cc(C)nc(C(C)C)n1 | 3.81
CCOP(=O)(OCC)Oc1cc(C)nc(C(C)C)n1 | 2.07
CCOP(=O)(OCC)Oc1ccc([N+](=O)[O-])cc1 | 1.98
COP(=S)(OC)SCN1C(=O)c2ccccc2C1=O | 2.78
CCOP(=S)(OCC)Oc1ccc(S(C)=O)cc1 (centres undefined) | 2.23
CCOP(=S)(OCC)Oc1ccc(SC)cc1 | 4.16
CCOP(=S)(OCC)Oc1cc(Cl)c(Br)cc1Cl | 5.68
COP(=O)(Oc1cc(Cl)c(Br)cc1Cl)c1ccccc1 (centres undefined) | 4.58

Same assay, conditions: pH 9.0

SMILES | logD
CNC(=O)Oc1ccc(N(C)C)c(C)c1 | 1.9
